How the values were obtained:
Type in all cases: biochemical
EGFR = molecular target: T1, EGFR (Homo sapiens, UniProt P00533); test: EGFR Kinase Assay; conditions: for IC50: GST-EGFR, ATP 5 μM; for inhibition at 2 µM: test concentration of 2 μM, compounds without an IC50, read-out: EGFR inhibition in percent
T1 construct: The intracellular portion of EGFR started at nucleotide 2189 (corresponding to amino acid 667) and ended at the termination codon; made in house; host or cells: Sf9 insect cells (baculovirus)
T1 sequence (P00533 669-1210 limits assumed): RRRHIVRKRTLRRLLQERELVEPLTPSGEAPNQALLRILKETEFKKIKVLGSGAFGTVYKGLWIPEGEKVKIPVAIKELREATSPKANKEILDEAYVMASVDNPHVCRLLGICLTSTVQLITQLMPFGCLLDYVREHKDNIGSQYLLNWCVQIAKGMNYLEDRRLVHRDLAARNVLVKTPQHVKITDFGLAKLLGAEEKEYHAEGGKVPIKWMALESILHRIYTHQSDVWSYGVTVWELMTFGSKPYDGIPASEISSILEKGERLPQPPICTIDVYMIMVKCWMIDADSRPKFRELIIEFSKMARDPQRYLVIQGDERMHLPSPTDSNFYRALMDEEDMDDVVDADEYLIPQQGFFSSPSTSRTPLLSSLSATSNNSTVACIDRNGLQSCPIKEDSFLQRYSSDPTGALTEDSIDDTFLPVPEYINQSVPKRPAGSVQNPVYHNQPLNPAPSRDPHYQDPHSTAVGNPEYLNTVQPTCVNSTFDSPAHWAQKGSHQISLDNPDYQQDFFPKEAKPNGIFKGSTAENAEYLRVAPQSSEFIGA
Outline: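 Potency came from triplicate 16-point half-log titrations starting at 200 uM, with IC50 fitted from % inhibition against log concentration, or % inhibition at 2 μM otherwise. Reaction: Sf9-made GST–EGFR cytoplasmic region (aa 667 onward), biotin-polyGluTyr, 5 μM ATP with 33P tracer, pH 8.0 Tris/Mg/vanadate/DTT, 30 °C for 1 h; captured on streptavidin Flashplates and counted.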

c-Src kinase (human) = molecular target: T2, c-Src kinase (human) (Homo sapiens, UniProt P12931); test: c-Src Kinase Assay; conditions: test concentration of 2 μM; multiple values are separate assay results
T2 construct: purchased Upstate Biotechnology, Lake Placid, N.Y
T2 sequence (P12931 whole entry): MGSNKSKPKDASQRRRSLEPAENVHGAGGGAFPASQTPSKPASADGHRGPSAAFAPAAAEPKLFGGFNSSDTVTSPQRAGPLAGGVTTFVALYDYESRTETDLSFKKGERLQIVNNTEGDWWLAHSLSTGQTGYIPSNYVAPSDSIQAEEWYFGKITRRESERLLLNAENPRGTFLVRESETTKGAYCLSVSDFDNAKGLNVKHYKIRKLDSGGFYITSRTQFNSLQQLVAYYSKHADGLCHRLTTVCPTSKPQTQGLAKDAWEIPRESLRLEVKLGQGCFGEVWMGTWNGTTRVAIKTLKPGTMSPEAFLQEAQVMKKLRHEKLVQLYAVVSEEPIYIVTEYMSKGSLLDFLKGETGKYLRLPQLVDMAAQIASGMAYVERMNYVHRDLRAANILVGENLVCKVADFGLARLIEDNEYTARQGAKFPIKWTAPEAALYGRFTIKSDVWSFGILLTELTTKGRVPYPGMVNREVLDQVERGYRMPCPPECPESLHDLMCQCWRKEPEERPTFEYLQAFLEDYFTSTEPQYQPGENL
Outline: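 Inhibition was read as 33P incorporation, counted on P30 filtermats, after a 40 min, 30° C reaction. Human c-Src acted on 100 μM Cdc2 peptide with 5 μM ATP (final), pH 7.0 MOPS/MgCl2. Values are percent inhibition at 2 μM compound, or IC50 where determined.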

HER-2 = molecular target: T3, HER-2 (Homo sapiens, UniProt P04626); test: HER-2 Kinase Assay; conditions: for inhibition at 1 µM: test concentration of 1 μM; for IC50: value in parentheses
T3 construct: His6 with thrombin site (N); purchased Proqinase (Freiburg, Germany)
T3 sequence (P04626 679-1255): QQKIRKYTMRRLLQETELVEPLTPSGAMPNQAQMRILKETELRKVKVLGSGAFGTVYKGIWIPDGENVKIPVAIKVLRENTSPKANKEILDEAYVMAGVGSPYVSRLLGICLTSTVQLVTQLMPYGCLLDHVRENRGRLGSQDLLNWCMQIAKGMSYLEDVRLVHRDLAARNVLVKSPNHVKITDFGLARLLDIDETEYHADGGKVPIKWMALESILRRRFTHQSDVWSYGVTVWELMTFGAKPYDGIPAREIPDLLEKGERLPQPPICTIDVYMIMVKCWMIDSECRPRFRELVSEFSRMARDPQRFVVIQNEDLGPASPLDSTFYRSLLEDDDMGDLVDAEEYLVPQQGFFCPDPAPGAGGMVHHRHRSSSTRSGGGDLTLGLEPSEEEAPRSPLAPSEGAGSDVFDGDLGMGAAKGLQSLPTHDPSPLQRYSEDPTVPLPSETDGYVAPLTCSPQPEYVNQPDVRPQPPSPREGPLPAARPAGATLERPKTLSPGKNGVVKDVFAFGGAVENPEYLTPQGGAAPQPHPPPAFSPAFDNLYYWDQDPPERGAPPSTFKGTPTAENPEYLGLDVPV
Outline: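 Read-out was scintillation counting of 33P incorporated into biotinylated polyGluTyr captured on streptavidin plates. Reactions ran 1 h at 30 °C with GST-fused HER-2 residues 679–1255, 1 μM ATP, Mn2+ and Mg2+ at pH 7.5; data given as percent inhibition at 1 μM, with IC50 where determined.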

Lyn kinase (human) = molecular target: T4, Lyn kinase (human) (Homo sapiens, UniProt P07948); test: Lyn Kinase Assay; conditions: test concentration of 2 μM
T4 construct: purchased Upstate Biotechnology, Lake Placid, N.Y
T4 sequence (P07948 whole entry): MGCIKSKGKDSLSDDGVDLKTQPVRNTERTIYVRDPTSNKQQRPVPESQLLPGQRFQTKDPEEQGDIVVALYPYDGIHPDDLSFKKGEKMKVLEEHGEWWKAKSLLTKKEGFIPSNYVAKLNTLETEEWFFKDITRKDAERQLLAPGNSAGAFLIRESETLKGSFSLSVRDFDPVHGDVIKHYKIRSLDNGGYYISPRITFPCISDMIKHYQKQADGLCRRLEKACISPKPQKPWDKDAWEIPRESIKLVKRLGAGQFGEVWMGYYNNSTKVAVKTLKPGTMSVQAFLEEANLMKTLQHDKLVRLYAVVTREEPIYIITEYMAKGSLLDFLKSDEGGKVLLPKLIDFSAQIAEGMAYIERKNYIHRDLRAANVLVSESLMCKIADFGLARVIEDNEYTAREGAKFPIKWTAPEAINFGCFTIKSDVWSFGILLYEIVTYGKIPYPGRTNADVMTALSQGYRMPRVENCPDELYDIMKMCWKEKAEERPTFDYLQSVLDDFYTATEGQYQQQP
Outline: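 Radiometric filter-binding assay with recombinant human Lyn, poly(Glu,Tyr) substrate (0.1 mg/mL final), 5 μM ATP plus γ-33P-ATP in MOPS pH 7.5/Mg acetate buffer; 40 min at 30 °C, stopped with phosphoric acid, counted by scintillation. Reported as percent inhibition at 2 μM, with IC50 (μM) where determined.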

Compound | IC50 (EGFR) [nM] | inhibition at 2 µM (c-Src kinase (human)) [%] | inhibition at 1 µM (HER-2) [%] | IC50 (HER-2) [nM] | inhibition at 2 µM (Lyn kinase (human)) [%] | inhibition at 2 µM (EGFR) [%]
O=C(Nc1ccc(CCN2CCCCC2)cc1)c1sc2ncnc3c2c1NC(=O)N3c1ccc(Oc2ccccc2)c(Cl)c1 [Cpd 136, 5-(3-chloro-4-phenoxy-phenyl)-4-oxo-4,5-dihydro-3H-1-thia-3,5,6,8-tetraaza-acenaphthylene-2-carboxylic acid [4-(2-piperidin-1-yl-ethyl)-phenyl]-amide] | 31 | -41 | 70 | 222 | 43 | –
O=C(NCCCO)c1sc2ncnc3c2c1NC(=O)N3c1ccc(Oc2ccccc2)c(Cl)c1 [Cpd 137, 5-(3-chloro-4-phenoxy-phenyl)-4-oxo-4,5-dihydro-3H-1-thia-3,5,6,8-tetraaza-acenaphthylene-2-carboxylic acid (3-hydroxy-propyl)-amide] | 30 | 26 | 48 | 1630 | 43 | –
O=C(Nc1ccc(CN2CCOCC2)cc1)c1sc2ncnc3c2c1NC(=O)N3c1ccc(Oc2ccccc2)c(Cl)c1 [Cpd 138, 5-(3-chloro-4-phenoxy-phenyl)-4-oxo-4,5-dihydro-3H-1-thia-3,5,6,8-tetraaza-acenaphthylene-2-carboxylic acid (4-morpholin-4-ylmethyl-phenyl)-amide] | 59 | 39 | – | 178 | 50 | –
O=C(Nc1ccc(CN2CCCCC2)cc1)c1sc2ncnc3c2c1NC(=O)N3c1ccc(-c2ccc(Cl)cc2)cc1 [Cpd 139, 5-(4′-chloro-biphenyl-4-yl)-4-oxo-4,5-dihydro-3H-1-thia-3,5,6,8-tetraaza-acenaphthylene-2-carboxylic acid (4-piperidin-1-ylmethyl-phenyl)-amide] | – | 28 | – | > 100000 | 34 | 18
O=C(Nc1ccc(CN2CCOCC2)cc1)c1sc2ncnc3c2c1NC(=O)N3c1ccc(-c2ccc(Cl)cc2)cc1 [Cpd 140, 5-(4′-chloro-biphenyl-4-yl)-4-oxo-4,5-dihydro-3H-1-thia-3,5,6,8-tetraaza-acenaphthylene-2-carboxylic acid (4-morpholin-4-ylmethyl-phenyl)-amide] | – | 25 | – | > 100000 | 43 | 20
NCCCNC(=O)c1sc2ncnc3c2c1NC(=O)N3c1ccc2c(ccn2Cc2cccc(F)c2)c1 [Cpd 142, 5-[1-(3-fluoro-benzyl)-1H-indol-5-yl]-4-oxo-4,5-dihydro-3H-1-thia-3,5,6,8-tetraaza-acenaphthylene-2-carboxylic acid (3-amino-propyl)-amide] | 11 | 10 | – | 381 | 39 | –
COc1cc(NC(=O)c2sc3ncnc4c3c2NC(=O)N4c2ccc(F)cc2Cl)ccc1OCCN1CCCCC1 [Cpd 144, 5-(2-chloro-4-fluoro-phenyl)-4-oxo-4,5-dihydro-3H-1-thia-3,5,6,8-tetraaza-acenaphthylene-2-carboxylic acid [3-methoxy-4-(2-piperidin-1-yl-ethoxy)-phenyl]-amide] | 330 | 67 | 18 | – | 84 | –
O=C(Nc1ccc(CN2CCCCC2)cc1)c1sc2ncnc3c2c1NC(=O)N3c1ccc(F)cc1Cl [Cpd 145, 5-(2-chloro-4-fluoro-phenyl)-4-oxo-4,5-dihydro-3H-1-thia-3,5,6,8-tetraaza-acenaphthylene-2-carboxylic acid (4-piperidin-1-ylmethyl-phenyl)-amide] | 166 | 50 | 54 | 4230 | 83 | –
Cc1cccc(Cl)c1N1C(=O)Nc2c(C(=O)Nc3ccc(CN4CCOCC4)cc3)sc3ncnc1c23 [Cpd 146, 5-(2-chloro-6-methyl-phenyl)-4-oxo-4,5-dihydro-3H-1-thia-3,5,6,8-tetraaza-acenaphthylene-2-carboxylic acid (4-morpholin-4-ylmethyl-phenyl)-amide] | – | 45 | 21 | – | 65 | 37
Cc1cccc(Cl)c1N1C(=O)Nc2c(C(=O)Nc3ccc(CN4CCCCC4)cc3)sc3ncnc1c23 [Cpd 147, 5-(2-chloro-6-methyl-phenyl)-4-oxo-4,5-dihydro-3H-1-thia-3,5,6,8-tetraaza-acenaphthylene-2-carboxylic acid (4-piperidin-1-ylmethyl-phenyl)-amide] | – | 61 | 17 | – | 76 | 43
Cc1cccc(Cl)c1N1C(=O)Nc2c(C(=O)Nc3ccc(C(O)CN4CCOCC4)cc3)sc3ncnc1c23 (centres unmarked) [Cpd 148, 5-(2-chloro-6-methyl-phenyl)-4-oxo-4,5-dihydro-3H-1-thia-3,5,6,8-tetraaza-acenaphthylene-2-carboxylic acid [4-(1-hydroxy-2-morpholin-4-yl-ethyl)-phenyl]-amide] | – | 53 | 30 | – | 59 | 38
O=C(Nc1ccc(CN2CCOCC2)cc1)c1sc2ncnc3c2c1NC(=O)N3c1ccccc1Cl [Cpd 149, 5-(2-chloro-phenyl)-4-oxo-4,5-dihydro-3H-1-thia-3,5,6,8-tetraaza-acenaphthylene-2-carboxylic acid (4-morpholin-4-ylmethyl-phenyl)-amide] | 187 | 54 | 53 | 2540 | 72 | –
O=C(Nc1ccc(CN2CCCCC2)cc1)c1sc2ncnc3c2c1NC(=O)N3c1ccccc1Cl [Cpd 150, 5-(2-chloro-phenyl)-4-oxo-4,5-dihydro-3H-1-thia-3,5,6,8-tetraaza-acenaphthylene-2-carboxylic acid (4-piperidin-1-ylmethyl-phenyl)-amide] | 170 | 52 | 18 | – | 77 | –
CN1CCN(Cc2ccc(NC(=O)c3sc4ncnc5c4c3NC(=O)N5c3ccccc3Cl)cc2)CC1 [Cpd 151, 5-(2-chloro-phenyl)-4-oxo-4,5-dihydro-3H-1-thia-3,5,6,8-tetraaza-acenaphthylene-2-carboxylic acid [4-(4-methyl-piperazin-1-ylmethyl)-phenyl]-amide] | 603 | 53 | 29 | – | 61 | –
O=C1Nc2csc3ncnc(c23)N1c1ccc2c(ccn2Cc2cccc(F)c2)c1 [Cpd 152, 5-[1-(3-fluoro-benzyl)-1H-indol-5-yl]-3H,5H-1-thia-3,5,6,8-tetraaza-acenaphthylen-4-one] | 333 | -6 | – | 3720 | 7 | –
O=C(Nc1ccc(CN2CCOCC2)cc1)c1sc2ncnc3c2c1NC(=O)N3c1ccc(F)c(Br)c1 [Cpd 153, 5-(3-bromo-4-fluoro-phenyl)-4-oxo-4,5-dihydro-3H-1-thia-3,5,6,8-tetraaza-acenaphthylene-2-carboxylic acid (4-morpholin-4-ylmethyl-phenyl)-amide] | 159 | 16 | 70 | 294 | -4 | –
O=C(NCCCO)c1sc2ncnc3c2c1NC(=O)N3c1ccc(F)c(Br)c1 [Cpd 154, 5-(3-bromo-4-fluoro-phenyl)-4-oxo-4,5-dihydro-3H-1-thia-3,5,6,8-tetraaza-acenaphthylene-2-carboxylic acid (3-hydroxy-propyl)-amide] | 592 | 8 | 12 | > 10000 | 7 | –
O=C(Nc1ccc(CN2CCCCC2)cc1)c1sc2ncnc3c2c1NC(=O)N3c1ccc(F)c(Br)c1 [Cpd 155, 5-(3-bromo-4-fluoro-phenyl)-4-oxo-4,5-dihydro-3H-1-thia-3,5,6,8-tetraaza-acenaphthylene-2-carboxylic acid (4-piperidin-1-ylmethyl-phenyl)-amide] | 28 | 18 | 88 | 327 | 41 | –
COc1cc(NC(=O)c2sc3ncnc4c3c2NC(=O)N4c2ccc(Cc3ccccc3)cc2)ccc1OCCN1CCCCC1 [Cpd 163, 5-(4-benzyl-phenyl)-4-oxo-4,5-dihydro-3H-1-thia-3,5,6,8-tetraaza-acenaphthylene-2-carboxylic acid [3-methoxy-4-(2-piperidin-1-yl-ethoxy)-phenyl]-amide] | 18 | 26 | – | 278 | 55 | –

From patent publication US7579356B2, “Thia-tetraazaacenaphthylene kinase inhibitors” (Janssen Pharmaceutica NV, priority 2005, dated 2009)
